“Also recorded” adds a separate entry of the source.
What was measured:
4T1 cells = experiment: Proof-of-principle drug screen on automatically injected 4T1 multicellular spheroids in collagen gel, 96 well plate; assay type: cell-based, mouse; conditions: for Feret's Diameter (longest distance between any two points along the selection boundary, maximum caliper), averages / Circularity (4π*area/perimeter^2, 1 = perfect circle), averages / Invasion area (area day 4/area day 0), averages: 1:1000 dilution (10 μM); for Feret's Diameter (longest distance between any two points along the selection boundary, maximum caliper), averages / Circularity (4π*area/perimeter^2, 1 = perfect circle), averages: automated analysis of fluorescent actin staining at day 4; for Feret's Diameter (longest distance between any two points along the selection boundary, maximum caliper), averages: Figure 7B, ctrl 0.67, unit assumed; for Circularity (4π*area/perimeter^2, 1 = perfect circle), averages: Figure 7C, ctrl 0.15; for Invasion area (area day 4/area day 0), averages: manual from DIC images at day 0 and day 4, Figure 7A, ctrl 25.88; for Cell migration from 4T1 spheroids: visual inspection / actin images after 4 days, 4, 10, 20 μM
Description: (§1) Cell suspensions derived from trypsin-detached adherent cultures or from collagenase-treated biopsies were filtered to remove clumps, centrifuged at 1000 rpm for 5 minutes, and washed twice with PBS. ˜7×10^6 cells were re-suspended in 30 μl PBS containing 2% polyvinylpyrrolidone (PVP; Sigma-Aldrich). The PVP/cell suspension was loaded into a beveled pulled glass needle (Eppendorf CustomTip Type III, oD [μm] 60, Front surface 40, Flexibility: rigid).
A glass-bottom 96 well plate (Greiner) containing 60 μl solidified collagen gel per well was placed in a motorized stage (MTmot 200×100 MR, Märzhäuser) connected to a controller (Tango, Märzhäuser). A motorized micro-manipulator (Injectman II, Eppendorf) was positioned above the stage and connected to a pump (Femtojet Express, Eppendorf) featuring an external compressor (lubricated compressor, model 3-4, JUN-AIR). A firewire camera (DFK41BF02.H, The Imaging Source) equipped with an 8× macro lens (MR8/O, The Imaging Source) was placed beneath the stage for calibration and imaging. All components were connected to the controlling computer (Ubuntu AMD64). A multi-threaded control program was written in Python using PySerial and wxPython. Coriander software (http://damien.douxchamps.net/ieee1394/coriander) was used for imaging.
After the program was calibrated for the 96 well plate the camera height was adjusted to focus on the bottom of the 96 well plate. The plate was then removed for needle calibration: the injection needle was fixed in the Injectman and moved, using the Injectman controller, into the center of the image. The injection height was set to 200 µm above the bottom of the (virtual) plate. After the needle was moved up, the plate was placed back in position and the upper left well was used for multiple test injections to adjust pump pressure and injection time for optimization of the droplet size (300 µm diameter) using video inspection. Subsequently, using a pre-defined macro defining x-y coordinates and number of injections per well, all wells were injected using the same pressure and injection time.
Differential interference contrast (DIC) images were captured using a charged coupled device (CCD) camera with NIS Image Pro software at 10× dry objective. Quantification of spheroid invasion area was analyzed from DIC images using ImageJ. […] One-way ANOVA was performed to test the significance of the data (p<0.05). The data are presented and plotted as average and standard error of the mean; tables are available in the supplement.
For automated imaging, wells containing gel-embedded spheroids were treated with a fixation and staining cocktail containing 3.7% formaldehyde, 0.2% Triton X-100 (Sigma) and 0.1 μM rhodamine phalloidin (Sigma) for 3 hrs. Wells were washed extensively with PBS and plates were imaged on a Becton Dickinson Pathway 855 using a 4× lens. A montage of 12 frames was made for each Z plane, with a total of 24 Z planes at an interval of 50 μm. Image stacks were converted into 2D maximum fluorescence intensity projections using ImagePro 7.0. MS were then digitally segmented using ImageJ to identify the outline of individual spheroids and multiple parameters were measured, including spheroid Feret's diameter, roundness, and number of spheroids scored in each well.
LY-294002 (phosphatidylinositol 3-kinase), JSI-124-cucurbitacin (STAT3/Jak2), and NSC23766 (Rac1) were purchased from Merck/CalBiochem. PP2 (Src) and ML-7 (MLC kinase) were purchased from ENZO. Y-27632 (Rock) and SB-431542 (TGFb) were purchased from BioMol Tocris. AG1478 (EGFR) was purchased from BioMol and AG-82 (general protein tyrosine kinases) was purchased from Calbiochem. Cell migration was analyzed in the absence and presence of inhibitors for 4 days.
A proof of principle drug screen was performed to test the applicability of this procedure to automated high-throughput drug screening assays (HTS). […]

Osteosarcoma = experiment: Inhibitor treatment of spheroids from fresh human osteosarcoma biopsy in collagen gel; assay type: cell-based; conditions: lowest collagen concentration 1.0 mg/ml; bright-field images after 6 days; treatment from 1 day post-injection
Text: (§2) FIG. 9: Spheroids obtained from two fresh human biopsies. […] The lowest concentration, row G, triggers the largest migration in Chondrosarcoma as well (G5) while the type of migration remains the same between the row F and row G (see F4, G5). […] Scale=100 μm.
(§3) Human biopsy material was obtained from surplus material from patients that were surgically treated for chondrosarcoma or osteosarcoma. Tumor cell suspensions were derived from biopsies by overnight collagenase treatment at room temperature.
as §1
(§4) Next, cell suspensions were derived from freshly isolated human biopsies of osteosarcoma and chondrosarcoma and injected in gels containing three different collagen concentrations. MS readily formed from these human biopsies and survival and migration could be studied for up to 1 week with the two tumor types showing distinct migratory behavior (FIG. 9). […] MS were treated with the range of compounds described above starting 1 day post-injection. […] Thus, the automated MS injection methodology has the potential to be used for large scale screening for the drug sensitivity spectrum of tumor cells freshly isolated from individual patients.

Chondrosarcoma = experiment: Inhibitor treatment of spheroids from fresh human chondrosarcoma biopsy in collagen gel; assay type: cell-based; conditions: lowest collagen concentration 1.0 mg/ml; bright-field images after 6 days; treatment from 1 day post-injection
Text: as §2, §3, §1, §4

Compound | Feret's Diameter (longest distance between any two points along the selection boundary, maximum caliper), averages (4T1 cells) [mm] | Circularity (4π*area/perimeter^2, 1 = perfect circle), averages (4T1 cells) | Invasion area (area day 4/area day 0), averages (4T1 cells) | Migration of Osteosarcoma spheroids (Osteosarcoma) | Migration of Chondrosarcoma spheroids (Chondrosarcoma) | Cell migration from 4T1 spheroids (4T1 cells) | Cell survival in 4T1 spheroids (4T1 cells; rhodamine phalloidin actin fluorescence, 4 days treatment)
N#CC(C#N)=Cc1cc(O)c(O)c(O)c1 [AG-82] | 0.46 | 0.24 | 20.96 |  |  |  | 
C[C@@H](N)[C@H]1CC[C@H](C(=O)Nc2ccncc2)CC1 [Y-27632] | 0.41 | 0.35 | 16.86 | stimulates migration | stimulates migration |  | 
CC(C)(C)n1nc(-c2ccc(Cl)cc2)c2c(N)ncnc21 [PP2] | 0.55 | 0.19 | 22.48 | block migration; also recorded: effectively inhibited migration | reduces migration; also recorded: effectively inhibited migration |  | 
NC(=O)c1ccc(-c2nc(-c3ccc4c(c3)OCO4)c(-c3ccccn3)[nH]2)cc1 [SB-431542] | 0.46 | 0.22 | 16 |  |  |  | 
CC(C)(O)/C=C/C(=O)[C@](C)(O)[C@H]1[C@H](O)C[C@@]2(C)[C@@H]3CC=C4[C@@H](C=C(O)C(=O)C4(C)C)[C@]3(C)C(=O)C[C@]12C [JSI-124] | 0.23 | 0.78 | 1.01 | block migration; also recorded: effectively inhibited migration | block migration completely; also recorded: effectively inhibited migration | Effects on cell migration could be clearly observed; also recorded: blocked migration, but left the MS intact | 
CCN(CC)CCCC(C)Nc1nc(C)cc(Nc2ccc3nc(C)cc(N)c3c2)n1 (centres unmarked) [NSC23766] | 0.37 | 0.29 | 17.51 |  |  |  | 
COc1cc2ncnc(Nc3cccc(Cl)c3)c2cc1OC [AG1478] | 0.56 | 0.19 | 25.75 | block migration; also recorded: effectively inhibited migration | block migration completely; also recorded: effectively inhibited migration |  | 
O=c1cc(N2CCOCC2)oc2c(-c3ccccc3)cccc12 [LY-294002] | 0.38 | 0.26 | 14.91 |  |  |  | 
O=S(=O)(c1cccc2c(I)cccc12)N1CCCNCC1 [ML-7] |  |  | 1.09 | block migration; also recorded: effectively inhibited migration | block migration completely; also recorded: effectively inhibited migration | Effects on cell migration could be clearly observed | did not survive the treatment; also recorded: affected cell survival

From patent US20140221225A1, “METHOD FOR OBTAINING A MULTICELLULAR SPHEROID” (Universiteit Leiden, priority 2011, published 2014)
